According to US20220241249A1, “PHARMACEUTICAL COMPOSITION AND KIT CONTAINING NOVEL PENAM DERIVATIVE OR SALT THEREOF AND ONE OR MORE COMPOUNDS SELECTED FROM beta-LACTAMASE INHIBITORY COMPOUND AND ANTIBACTERIAL COMPOUND OR SALTS THEREOF” (priority 2019, published 2022):
Converted amounts (≈) assume the structure as drawn. Where two headings read alike, the source gives them in different places.

Key:
Assay type in all cases: cell-based
[1] = system: Klebsiella pneumoniae Y-1020 strain producing KPC-3 and SHV-12 (strain B); assay: MIC of test compound alone or with β-lactamase inhibitor at 4 μg/mL; details: for MIC: Strain B
Protocol: (§1) By using a broth microdilution method, the combinational effect of a test compound and a β-lactamase inhibitor was evaluated.
(§2) The evaluation test for antibacterial activity was performed in the same manner as in Test Example 1.

[2] = system: Klebsiella pneumoniae Y-1133 strain producing NDM-1, OXA-48, and CTX-M-15 (strain C); assay: as above
Protocol: as §1, §2
Klebsiella pneumoniae Y-1133 strain producing NDM-1, OXA-48, and CTX-M-15 (hereinafter, called strain C),
(§3) An antibacterial activity evaluation test was performed in the same manner as in Test Example 6.
(§4) As the bacterial strain, the strains B, C, and D producing β-lactamase and a Klebsiella pneumoniae Y-1069 strain (hereinafter, called strain F) producing OXA-48 and CTX-M-15 were used.

[3] = system: Escherichia coli TK-3113 strain producing IMP-8 (strain D); assay: as above
Protocol: as §1, §2
Escherichia coli TK-3113 strain producing IMP-8 (hereinafter, called strain D),
as §3, §4

[4] = system: Escherichia coli TK-1765 strain producing CMY-2 (strain E); assay: as above
Protocol: as §1, §2
Escherichia coli TK-1765 strain producing CMY-2 (hereinafter, called strain E)

[5] = system: AmpC-derepressed Pseudomonas aeruginosa mutant strain (S-3028); assay: Antibacterial activity evaluation test, MIC by broth microdilution (CLSI); details: Pseudomonas aeruginosa
In short: (§5)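 MIC (μg/mL) = lowest drug concentration showing no visible bacterial growth after 16–20 h at 35° C. in cation-adjusted Mueller Hinton broth. Inoculum: agar-grown cells at 0.5 McFarland, diluted 10-fold.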

[6] = system: CTX-M-15-containing Escherichia coli strain (TK-1747); assay: as above; details: Escherichia coli
In short: as §5

[7] = system: GES-19 and GES-20-containing Pseudomonas aeruginosa strain (S-3759); assay: as above; details: Pseudomonas aeruginosa
In short: as §5

[8] = system: IMP-1-containing Pseudomonas aeruginosa strain (S-2838); assay: as above; details: Pseudomonas aeruginosa
In short: as §5

[9] = system: KPC-2-containing Klebsiella pneumoniae strain (Y-995); assay: as above; details: Klebsiella pneumoniae
In short: as §5

[10] = system: NDM-1-containing Klebsiella pneumoniae strain (Y-1007); assay: as above; details: Klebsiella pneumoniae
In short: as §5

[11] = system: OXA-48-containing Klebsiella pneumoniae strain (Y-1062); assay: as above; details: Klebsiella pneumoniae
In short: as §5

[12] = system: Pseudomonas aeruginosa strain ATCC27853; assay: as above; details: ATCC27853
In short: as §5

[13] = system: VIM-2-containing Pseudomonas aeruginosa strain (S-3779); assay: as above; details: Pseudomonas aeruginosa
In short: as §5

[14] = test compound alone (β-lactamase inhibitor N/A)

SMILES | MIC [5] | MIC [6] | MIC [7] | MIC [8] | MIC [9] | MIC [10] | MIC [11] | MIC ([12]; Pseudomonas aeruginosa) | MIC [13] | also measured
CC(C)(O/N=C(\C(=O)N[C@@H]1C(=O)N2C[C@@](C(=O)O)(N3CCN(NC(=O)C(=O)c4ccc(O)c(O)c4Cl)C3=O)S[C@H]12)c1nc(N)sc1Cl)C(=O)O [Compound D] | – | – | – | – | – | – | – | – | – | MIC ([1]; AVI added at 4 μg/mL): 0.25 µg/mL; MIC ([1]; NAC added at 4 μg/mL): <0.015 µg/mL; MIC ([1]; ZID added at 4 μg/mL): <0.015 µg/mL; MIC [1, 14]: 2 µg/mL; antibacterial activity in combination with a β-lactamase inhibitor versus without ([1]; for all the bacterial strains (strains A to E), summary of Tables 43 to 47): higher antibacterial activity; MIC ([2]; AVI added at 4 μg/mL): 0.12 µg/mL; MIC ([2]; NAC added at 4 μg/mL): <0.015 µg/mL; MIC ([2]; ZID added at 4 μg/mL): <0.015 µg/mL; MIC [2, 14]: 0.5 µg/mL; MIC ([3]; AVI added at 4 μg/mL): 0.5 µg/mL; MIC ([3]; NAC added at 4 μg/mL): 0.06 µg/mL; MIC ([3]; ZID added at 4 μg/mL): 0.03 µg/mL; MIC [3, 14]: 1 µg/mL; MIC [4, 14]: 0.5 µg/mL; MIC ([4]; with AVI at 4 μg/mL): 0.03 µg/mL; MIC ([4]; with CVA at 4 μg/mL): 0.25 µg/mL; MIC ([4]; with SBT at 4 μg/mL): 0.25 µg/mL; MIC ([4]; with TAZ at 4 μg/mL): 0.06 µg/mL; MIC ([4]; with VAB at 4 μg/mL): 0.12 µg/mL
CC(C)(O/N=C(\C(=O)N[C@@H]1C(=O)N2C[C@@](C(=O)O)(N3CCN(NC(=O)C(=O)c4ccc(O)c(O)c4Cl)C3=O)S[C@H]12)c1csc(N)n1)C(=O)O [Example 20, (3R,5R,6R)-6-((Z)-2-(2-aminothiazol-4-yl)-2-(((2-carboxypropan-2-yl)oxy)imino)acetamido)-3-(3-(2-(2-chloro-3,4-dihydroxyphenyl)-2-oxoacetamido)-2-oxoimidazolidin-1-yl)-7-oxo-4-thia-1-azabicyclo[3.2.0]heptane-3-carboxylic acid] | 0.25 µg/mL (≈ 0.337 µM) | < 0.06 µg/mL | 0.5 µg/mL (≈ 0.675 µM) | 0.12 µg/mL (≈ 0.162 µM) | 0.12 µg/mL (≈ 0.162 µM) | < 0.06 µg/mL | 0.5 µg/mL (≈ 0.675 µM) | 0.5 µg/mL (≈ 0.675 µM) | 0.25 µg/mL (≈ 0.337 µM) | –
Nc1nc(/C(=N/OC2(C(=O)O)CC2)C(=O)N[C@@H]2C(=O)N3C[C@@](C(=O)O)(N4CCN(NC(=O)C(=O)c5ccc(O)c(O)c5Cl)C4=O)S[C@H]23)cs1 [Example 21, (3R,5R,6R)-6-((Z)-2-(2-aminothiazol-4-yl)-2-((1-carboxycyclopropoxy)imino)acetamido)-3-(3-(2-(2-chloro-3,4-dihydroxyphenyl)-2-oxoacetamido)-2-oxoimidazolidin-1-yl)-7-oxo-4-thia-1-azabicyclo[3.2.0]heptane-3-carboxylic acid] | 4 µg/mL (≈ 5.41 µM) | 0.12 µg/mL (≈ 0.162 µM) | 1 µg/mL (≈ 1.35 µM) | 2 µg/mL (≈ 2.71 µM) | < 0.06 µg/mL | < 0.06 µg/mL | 2 µg/mL (≈ 2.71 µM) | 0.25 µg/mL (≈ 0.338 µM) | 0.5 µg/mL (≈ 0.676 µM) | –
CC(C)(O/N=C(\C(=O)N[C@@H]1C(=O)N2C[C@@](C(=O)O)(N3CCN(NC(=O)C(=O)NCCNC(=O)c4ccc(O)c(O)c4Cl)C3=O)S[C@H]12)c1csc(N)n1)C(=O)O [Example 68, (3R,5R,6R)-6-((Z)-2-(2-aminothiazol-4-yl)-2-(((2-carboxypropan-2-yl)oxy)imino)acetamido)-3-(3-(2-((2-(2-chloro-3,4-dihydroxybenzamido)ethyl)amino)-2-oxoacetamido)-2-oxoimidazolidin-1-yl)-7-oxo-4-thia-1-azabicyclo[3.2.0]heptane-3-carboxylic acid] | 0.25 µg/mL (≈ 0.302 µM) | 1 µg/mL (≈ 1.21 µM) | 4 µg/mL (≈ 4.84 µM) | 1 µg/mL (≈ 1.21 µM) | 0.5 µg/mL (≈ 0.604 µM) | < 0.06 µg/mL | 1 µg/mL (≈ 1.21 µM) | – | 2 µg/mL (≈ 2.42 µM) | MIC ([12]; Pseudomonas aeruginosa ATCC 27853, 35° C., 16 to 20 hours, read-out: MIC): 1 µg/mL (≈ 1.21 µM)
CC(C)(O/N=C(\C(=O)N[C@@H]1C(=O)N2C[C@@](C(=O)O)(N3CCN(NC(=O)CNC(=O)C(=O)c4ccc(O)c(O)c4Cl)C3=O)S[C@H]12)c1csc(N)n1)C(=O)O [Example 29] | < 0.06 µg/mL | 2 µg/mL (≈ 2.51 µM) | 0.5 µg/mL (≈ 0.626 µM) | 1 µg/mL (≈ 1.25 µM) | 0.5 µg/mL (≈ 0.626 µM) | < 0.06 µg/mL | 1 µg/mL (≈ 1.25 µM) | 0.25 µg/mL (≈ 0.313 µM) | 0.5 µg/mL (≈ 0.626 µM) | –
CC(C)(O/N=C(\C(=O)N[C@@H]1C(=O)N2C[C@@](C(=O)O)(n3cc(CNC(=O)c4ccc(O)c(O)c4Cl)nn3)S[C@H]12)c1csc(N)n1)C(=O)O [Example 74, (3R,5R,6R)-6-((Z)-2-(2-aminothiazol-4-yl)-2-(((2-carboxypropan-2-yl)oxy)imino)acetamido)-3-(4-((2-chloro-3,4-dihydroxybenzamido)methyl)-1H-1,2,3-triazol-1-yl)-7-oxo-4-thia-1-azabicyclo[3.2.0]heptane-3-carboxylic acid] | 0.5 µg/mL (≈ 0.704 µM) | 1 µg/mL (≈ 1.41 µM) | 1 µg/mL (≈ 1.41 µM) | 0.25 µg/mL (≈ 0.352 µM) | 2 µg/mL (≈ 2.82 µM) | 0.25 µg/mL (≈ 0.352 µM) | 4 µg/mL (≈ 5.63 µM) | 0.5 µg/mL (≈ 0.704 µM) | 1 µg/mL (≈ 1.41 µM) | –
C[C@H]1CN(/N=C/CNC(=O)c2ccc(O)c(O)c2Cl)C(=O)N1[C@]1(C(=O)O)CN2C(=O)C(NC(=O)/C(=N\OC(C)(C)C(=O)O)c3csc(N)n3)[C@H]2S1 (stereo partly drawn) [Example 45] | 2 µg/mL (≈ 2.6 µM) | 0.12 µg/mL (≈ 0.156 µM) | 2 µg/mL (≈ 2.6 µM) | 2 µg/mL (≈ 2.6 µM) | 0.25 µg/mL (≈ 0.325 µM) | < 0.06 µg/mL | 1 µg/mL (≈ 1.3 µM) | 1 µg/mL (≈ 1.3 µM) | 1 µg/mL (≈ 1.3 µM) | –
CC(C)(O/N=C(\C(=O)N[C@@H]1C(=O)N2C[C@@](C(=O)O)(n3ncn(NC(=O)C(=O)c4ccc(O)c(O)c4Cl)c3=O)S[C@H]12)c1csc(N)n1)C(=O)O [Example 26, (3R,5R,6R)-6-((Z)-2-(2-aminothiazol-4-yl)-2-(((2-carboxypropan-2-yl)oxy)imino)acetamido)-3-(4-(2-(2-chloro-3,4-dihydroxyphenyl)-2-oxoacetamido)-5-oxo-4,5-dihydro-1H-1,2,4-triazol-1-yl)-7-oxo-4-thia-1-azabicyclo[3.2.0]heptane-3-carboxylic acid] | 0.12 µg/mL (≈ 0.162 µM) | 0.12 µg/mL (≈ 0.162 µM) | 0.25 µg/mL (≈ 0.338 µM) | 0.25 µg/mL (≈ 0.338 µM) | 0.12 µg/mL (≈ 0.162 µM) | < 0.06 µg/mL | 0.5 µg/mL (≈ 0.676 µM) | 1 µg/mL (≈ 1.35 µM) | 0.25 µg/mL (≈ 0.338 µM) | –
Nc1nc(/C(=N/OC2(C(=O)O)CC2)C(=O)N[C@@H]2C(=O)N3C[C@@](C(=O)O)(N4CCN(NC(=O)C(=O)c5ccc(O)c(O)c5Cl)C4=O)S[C@H]23)c(Cl)s1 [Example 76, (3R,5R,6R)-6-((Z)-2-(2-amino-5-chlorothiazol-4-yl)-2-((1-carboxycyclopropoxy)imino)acetamido)-3-(3-(2-(2-chloro-3,4-dihydroxyphenyl)-2-oxoacetamido)-2-oxoimidazolidin-1-yl)-7-oxo-4-thia-1-azabicyclo[3.2.0]heptane-3-carboxylic acid] | 0.12 µg/mL (≈ 0.155 µM) | 0.06 µg/mL (≈ 0.0776 µM) | 0.25 µg/mL (≈ 0.323 µM) | 0.5 µg/mL (≈ 0.646 µM) | 0.25 µg/mL (≈ 0.323 µM) | 0.25 µg/mL (≈ 0.323 µM) | 0.25 µg/mL (≈ 0.323 µM) | 0.5 µg/mL (≈ 0.646 µM) | 0.25 µg/mL (≈ 0.323 µM) | –
CC(C)(O/N=C(\C(=O)N[C@@H]1C(=O)N2C(C(=O)[O-])=C(C[n+]3ccccc3)CS[C@H]12)c1csc(N)n1)C(=O)O [CAZ, ceftazidime hydrate, reference compound] | – | – | – | – | – | – | – | – | – | MIC ([3]; Escherichia coli, AVI added at 4 μg/mL): > 128 µg/mL; MIC ([3]; Escherichia coli, test compound alone (β-lactamase inhibitor N/A)): > 128 µg/mL
